In ChEMBL document CHEMBL1641502, “The identification of substituted benzothiophene derivatives as PGE(2) subtype 4 receptor antagonists: From acid to non-acid” (Bioorg Med Chem Lett, 2011):

Legend:
[1] = molecular target: T1, Prostaglandin E2 receptor EP4 subtype (Homo sapiens, UniProt P35408); assay: Binding affinity to EP4 receptor in presence of 10% HSA
[2] = molecular target: T1, Prostaglandin E2 receptor EP4 subtype; assay: Binding affinity to EP4 receptor
[3] = molecular target: Prostaglandin E2 receptor EP2 subtype (Homo sapiens, UniProt P43116); assay: Binding affinity to EP2 receptor
[4] = Binding affinity to DP receptor
[5] = molecular target: Prostaglandin F2-alpha receptor (Homo sapiens, UniProt P43088); assay: Binding affinity to FP receptor
[6] = molecular target: T2, Prostaglandin E2 receptor EP3 subtype (Homo sapiens, UniProt P43115); assay: Binding affinity to EP3 receptor
T2 sequence (P43115 whole entry): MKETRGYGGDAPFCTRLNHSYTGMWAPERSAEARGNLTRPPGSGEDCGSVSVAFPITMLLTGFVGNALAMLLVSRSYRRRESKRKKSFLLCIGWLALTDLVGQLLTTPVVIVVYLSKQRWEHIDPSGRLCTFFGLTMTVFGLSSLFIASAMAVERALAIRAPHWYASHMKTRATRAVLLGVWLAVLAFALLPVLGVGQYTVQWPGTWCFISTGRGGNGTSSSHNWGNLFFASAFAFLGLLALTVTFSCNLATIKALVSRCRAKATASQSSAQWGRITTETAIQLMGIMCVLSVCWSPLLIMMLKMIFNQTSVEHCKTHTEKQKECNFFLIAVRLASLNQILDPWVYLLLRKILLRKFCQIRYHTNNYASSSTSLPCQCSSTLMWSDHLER

[7] = molecular target: T3, Prostaglandin D2 receptor 2 (Homo sapiens, UniProt Q9Y5Y4); assay: Binding affinity to CRTH2 receptor
T3 sequence (Q9Y5Y4 whole entry): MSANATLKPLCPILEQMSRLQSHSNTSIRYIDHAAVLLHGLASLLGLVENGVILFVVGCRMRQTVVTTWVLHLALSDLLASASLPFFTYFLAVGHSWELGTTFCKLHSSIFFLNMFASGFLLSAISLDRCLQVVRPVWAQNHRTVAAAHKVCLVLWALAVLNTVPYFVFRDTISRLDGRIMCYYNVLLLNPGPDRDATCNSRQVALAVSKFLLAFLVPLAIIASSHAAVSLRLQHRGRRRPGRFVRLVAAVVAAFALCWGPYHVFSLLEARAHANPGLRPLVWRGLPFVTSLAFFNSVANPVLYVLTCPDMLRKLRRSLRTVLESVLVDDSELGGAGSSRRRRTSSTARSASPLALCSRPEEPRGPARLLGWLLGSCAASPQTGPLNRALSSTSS

Thromboxane A2 receptor = molecular target: T4, Thromboxane A2 receptor (Homo sapiens, UniProt P21731); assay: Binding affinity to TP receptor
T4 sequence (P21731 whole entry): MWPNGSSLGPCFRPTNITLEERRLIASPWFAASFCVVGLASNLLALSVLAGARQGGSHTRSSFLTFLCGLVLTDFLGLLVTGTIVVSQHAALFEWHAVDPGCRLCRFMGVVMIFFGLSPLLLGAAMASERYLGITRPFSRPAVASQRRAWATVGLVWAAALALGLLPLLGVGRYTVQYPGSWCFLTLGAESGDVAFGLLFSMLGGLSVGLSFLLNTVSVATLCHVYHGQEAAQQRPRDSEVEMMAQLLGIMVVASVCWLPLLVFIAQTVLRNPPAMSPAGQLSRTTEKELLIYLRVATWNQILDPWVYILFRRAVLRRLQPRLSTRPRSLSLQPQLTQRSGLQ

[8] = molecular target: T5, Prostaglandin E2 receptor EP1 subtype (Homo sapiens, UniProt P34995); assay: Binding affinity to EP1 receptor
T5 sequence (P34995 whole entry): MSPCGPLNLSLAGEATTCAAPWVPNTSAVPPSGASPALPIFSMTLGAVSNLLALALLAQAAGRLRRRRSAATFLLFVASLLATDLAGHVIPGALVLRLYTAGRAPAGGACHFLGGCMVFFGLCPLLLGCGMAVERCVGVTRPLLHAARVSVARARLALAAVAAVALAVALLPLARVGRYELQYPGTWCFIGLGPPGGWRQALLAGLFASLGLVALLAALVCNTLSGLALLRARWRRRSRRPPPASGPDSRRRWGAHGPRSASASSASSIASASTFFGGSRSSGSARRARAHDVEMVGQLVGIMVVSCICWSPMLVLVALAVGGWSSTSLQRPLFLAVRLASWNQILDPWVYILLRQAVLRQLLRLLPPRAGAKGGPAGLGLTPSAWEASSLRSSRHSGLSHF

Prostacyclin receptor = Prostacyclin receptor (Homo sapiens, UniProt P43119); assay: Binding affinity to IP receptor
[9] = molecular target: T1, Prostaglandin E2 receptor EP4 subtype; assay: Antagonist activity at human EP4 receptor in HEK293 cells by cell-based functional assay

T1 sequence (P35408 whole entry): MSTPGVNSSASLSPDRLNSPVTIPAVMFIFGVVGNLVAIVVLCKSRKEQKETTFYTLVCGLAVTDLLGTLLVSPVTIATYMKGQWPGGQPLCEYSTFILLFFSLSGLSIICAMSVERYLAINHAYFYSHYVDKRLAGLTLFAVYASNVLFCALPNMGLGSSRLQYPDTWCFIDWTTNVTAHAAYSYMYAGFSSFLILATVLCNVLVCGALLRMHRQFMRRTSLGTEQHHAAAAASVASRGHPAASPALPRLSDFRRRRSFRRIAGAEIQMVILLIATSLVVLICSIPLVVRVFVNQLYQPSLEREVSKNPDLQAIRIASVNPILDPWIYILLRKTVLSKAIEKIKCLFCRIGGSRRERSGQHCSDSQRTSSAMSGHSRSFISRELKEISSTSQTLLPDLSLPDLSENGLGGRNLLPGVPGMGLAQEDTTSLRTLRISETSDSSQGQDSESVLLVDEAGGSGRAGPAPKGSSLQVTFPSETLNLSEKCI
Chain of Prostaglandin F2-alpha receptor (P43088 whole entry): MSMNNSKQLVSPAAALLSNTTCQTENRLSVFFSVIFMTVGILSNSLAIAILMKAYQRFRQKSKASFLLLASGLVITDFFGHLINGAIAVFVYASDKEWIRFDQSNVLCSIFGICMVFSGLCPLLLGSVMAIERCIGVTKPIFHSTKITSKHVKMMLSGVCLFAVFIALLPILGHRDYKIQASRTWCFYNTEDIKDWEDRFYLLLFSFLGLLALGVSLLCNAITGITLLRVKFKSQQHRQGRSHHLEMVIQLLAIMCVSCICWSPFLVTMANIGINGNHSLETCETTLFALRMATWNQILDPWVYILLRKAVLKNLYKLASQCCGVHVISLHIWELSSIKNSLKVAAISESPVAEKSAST
Chain of Prostacyclin receptor (P43119 whole entry): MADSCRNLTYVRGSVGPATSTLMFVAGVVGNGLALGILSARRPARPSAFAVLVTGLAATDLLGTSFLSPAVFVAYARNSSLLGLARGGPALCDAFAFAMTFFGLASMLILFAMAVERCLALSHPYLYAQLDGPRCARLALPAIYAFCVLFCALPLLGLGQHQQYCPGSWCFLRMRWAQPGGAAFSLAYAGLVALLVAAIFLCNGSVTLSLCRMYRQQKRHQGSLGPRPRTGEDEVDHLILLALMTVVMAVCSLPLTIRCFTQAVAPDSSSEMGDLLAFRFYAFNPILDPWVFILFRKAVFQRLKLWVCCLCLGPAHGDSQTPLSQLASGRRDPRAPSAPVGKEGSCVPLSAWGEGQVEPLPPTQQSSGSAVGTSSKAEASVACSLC
Chain of Prostaglandin E2 receptor EP2 subtype (P43116 whole entry): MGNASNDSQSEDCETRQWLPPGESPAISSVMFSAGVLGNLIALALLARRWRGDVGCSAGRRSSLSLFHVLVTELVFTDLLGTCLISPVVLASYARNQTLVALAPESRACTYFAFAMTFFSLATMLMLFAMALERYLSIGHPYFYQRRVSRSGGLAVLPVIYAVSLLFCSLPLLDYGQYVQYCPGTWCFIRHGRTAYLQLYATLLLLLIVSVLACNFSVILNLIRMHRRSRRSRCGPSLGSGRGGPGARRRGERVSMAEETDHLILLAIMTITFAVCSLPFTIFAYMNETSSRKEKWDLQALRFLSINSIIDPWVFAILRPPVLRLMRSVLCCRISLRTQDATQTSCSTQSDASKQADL

| SMILES | Ki [1] [nM] | Ki [2] [nM] | other results |
| --- | --- | --- | --- |
| Cc1cc(C)c2sc(C(=O)N(C)C)c(-c3ccc(-c4nn[nH]n4)cc3)c2c1 | 2300 | 160 | – |
| COC(=O)c1sc2c(C)cc(C)cc2c1-c1ccc(CCNC(=O)NS(=O)(=O)c2ccc(C)cc2)cc1 | 39 | 0.97 | – |
| Cc1ccc(S(=O)(=O)NC(=O)NCCc2ccc(-c3c(C(=O)N(C)C)sc4c(C)cc(C)cc34)cc2)cc1 | 1.4 | 0.54 | Ki [3]: 3330 nM; Ki [4]: 73 nM; Ki [5]: > 8700 nM; Ki [6]: 530 nM; Ki [7]: > 7230 nM; Ki (Thromboxane A2 receptor): 61 nM; Ki [8]: > 9500 nM; Ki (Prostacyclin receptor): > 7700 nM; IC50 [9]: 1.2 nM |
| Cc1cc(C)c2sc(C(=O)N(C)C)c(-c3ccc(CCNC(=O)NS(=O)(=O)c4ccc(Cl)cc4)cc3)c2c1 | 2.2 | 0.4 | – |
| Cc1cc(C)c2sc(C(=O)N(C)C)c(-c3ccc(CCNC(=O)NS(=O)(=O)c4ccccc4Cl)cc3)c2c1 | 2.7 | 0.42 | – |
| Cc1ccc(S(=O)(=O)NC(=O)NCCc2ccc(-c3c(C(N)=O)sc4c(C)cc(C)cc34)cc2)cc1 | 650 | 3.8 | – |
| CNC(=O)c1sc2c(C)cc(C)cc2c1-c1ccc(CCNC(=O)NS(=O)(=O)c2ccc(C)cc2)cc1 | 134 | 0.5 | – |
| Cc1ccc(S(=O)(=O)NC(=O)NCCc2ccc(-c3c(C(=O)N4CCCC4)sc4c(C)cc(C)cc34)cc2)cc1 | 11 | 0.41 | – |
| Cc1ccc(S(=O)(=O)NC(=O)NCCc2ccc(-c3c(C(=O)N(C)C)sc4c(Cl)cc(Cl)cc34)cc2)cc1 | 17 | 0.59 | – |
| Cc1ccc(S(=O)(=O)NC(=O)NCCc2ccc(-c3c(C(=O)N(C)C)sc4c(F)cc(F)cc34)cc2)cc1 | 40 | 0.53 | – |
| Cc1ccc(S(=O)(=O)NC(=O)NCCc2ccc(-c3c(C(=O)N(C)C)sc4c(Cl)cc(C(F)(F)F)cc34)cc2)cc1 | 8.7 | 0.55 | – |
| Cc1ccc(S(=O)(=O)NC(=O)NCCc2ccc(-c3c(C(=O)N(C)C)sc4c(C)ccc(C)c34)cc2)cc1 | 19 | 0.77 | – |
| Cc1cc(C)c2sc(C(=O)N(C)C)c(-c3ccc(CCNC(=O)OC(C)(C)C)cc3)c2c1 | 1990 | 68 | – |
| COc1ccccc1CC(=O)NCCc1ccc(-c2c(C(=O)N(C)C)sc3c(C)cc(C)cc23)cc1 | 3.4 | 0.2 | IC50 [9]: 2.4 nM |
| Cc1cc(C)c2sc(C(=O)N(C)C)c(-c3ccc(CCNC(=O)Cc4ccccn4)cc3)c2c1 | 40 | 2.3 | – |
| COc1ccccc1C1(C(=O)NCCc2ccc(-c3c(C(=O)N(C)C)sc4c(C)cc(C)cc34)cc2)CC1 | 17 | 3 | – |
| Cc1cc(C)c2sc(C(=O)N(C)C)c(-c3ccc(CCNC(=O)Cc4c(Cl)cccc4Cl)cc3)c2c1 | 17 | 1.6 | – |
| Cc1cc(C)c2sc(C(=O)N(C)C)c(-c3ccc(CCNc4ncccn4)cc3)c2c1 | 42 | 0.98 | – |
